Laboratory results published in patent publication US20210228500A1, “CELLULAR RETINOID BINDING PROTEIN ANTAGONISTS AND USES THEREOF” (CASE WESTERN RESRVE UNIVERSITY, priority 2018, published 2021).
Entries after “also recorded” stand apart in the source; their conditions may differ.

Experiments:
Balb/cJ mice = test: Light-induced retinal degeneration (OCT, H&E histology); assay type: in vivo
Method: Retinal degeneration was induced by exposing dark-adapted Balb/cJ mice to white light with an intensity of ˜50 000 l×, delivered from a 100 W AC90-145 V lightemitting diode (LED) lamp (Home Depot) for 1 h. Abn-CBD in doses of 30, 15, or 7.5 mg kg^−1 was administered by i.p. injection in sterilized 80% DMSO/water (v/v) 1 h before exposure to bright light. […] Retinal morphology was analyzed in vivo by OCT 7 d after the light exposure. Then the mice were euthanized, and their eyes were subjected to staining with H&E staining and imaging.
To assess the effect of abn-CBD on light-induced retinal degeneration in Balb/cJ mice, the retinas were examined by ultrahigh resolution OCT (Bioptigen). Pupils of mice were first dilated with 1% tropicamide, and the animals were anesthetized with ketamine/xylazine cocktail. Twenty-five frames of OCT images scanned at 0° and 90° were acquired in the B-scan and averaged.
The structural morphology of mouse retinas challenged with bright light were assessed using H&E staining of paraffin sections. Mouse eyes were fixed in 4% paraformaldehyde and 1% glutaraldehyde followed by paraffin sectioning. Paraffin sections (5 μm thick) were stained with H&E and imaged by light microscopy (Leica).

RPE65 = biological target: T1, RPE65 (Bos taurus, UniProt Q28175); test: RPE65 isomerization activity assay; assay type: biochemical; conditions: bovine RPE microsomes preincubated with 10-50 μM
T1 construct: from tissue; host or cells: bovine RPE microsomes
T1 sequence (Q28175 whole entry): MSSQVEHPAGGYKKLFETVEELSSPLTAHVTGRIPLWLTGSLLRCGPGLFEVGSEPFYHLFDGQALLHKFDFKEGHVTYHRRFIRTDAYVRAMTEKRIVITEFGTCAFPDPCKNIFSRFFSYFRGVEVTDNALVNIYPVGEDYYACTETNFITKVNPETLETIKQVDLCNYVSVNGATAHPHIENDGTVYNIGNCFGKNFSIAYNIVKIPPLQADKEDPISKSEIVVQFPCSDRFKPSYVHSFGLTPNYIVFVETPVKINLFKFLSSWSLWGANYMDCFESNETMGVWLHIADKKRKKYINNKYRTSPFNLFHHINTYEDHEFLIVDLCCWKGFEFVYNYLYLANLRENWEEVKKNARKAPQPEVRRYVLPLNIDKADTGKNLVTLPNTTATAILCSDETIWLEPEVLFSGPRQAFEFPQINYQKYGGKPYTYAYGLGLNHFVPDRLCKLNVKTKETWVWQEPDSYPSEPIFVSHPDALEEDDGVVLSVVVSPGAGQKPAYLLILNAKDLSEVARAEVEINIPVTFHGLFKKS
Method: For the retinoid isomerization assay, UV-bleached RPE microsomes isolated from bovine eyes served as a source of robust RPE65 enzymatic activity. The isomerization reaction was performed in the presence of cellular retinaldehyde-binding protein (CRALBP) according to an established methodology published previously. The enzymatic reaction was initiated by addition of atROL the final concentration of 10 μM. After incubation at 30° C. for 30 min, the reaction products were extracted with hexane and analyzed by HPLC as described above.
Thus, to further probe the biological effect of this compound, we tested its effect on the key enzymes of the visual cycle. For this purpose, microsomes isolated from bovine RPE cells were preincubated with 10-50 μM of abn-CBD (1:1 to 1:5 molar excess of cannabinoid) prior to the initiation of the esterification, isomerization, or oxidation reactions by addition of an adequate retinoid substrate.

With C=C(C)[C@@H]1CCC(C)=C[C@H]1c1c(O)cc(O)cc1CCCCC [abn-CBD, 4-[(1R,6R)-3-Methyl-6-prop-1-en-2-ylcyclohex-2-en-1-yl]-5-pentylbenzene-1,3-diol] the “retinal histology (H&E) after light exposure” value (Balb/cJ mice; 7 d post illumination) was “protective effect; also recorded: partial preservation of the photoreceptor cells”, the “dose causing 50% of maximum effect (ED50), protection against light-induced retinal damage” value (Balb/cJ mice; i.p. before bright light, OCT (ONL thickness) 7 d later, estimated) was about 15 mg/kg and the “protection against light-induced retinal damage (OCT retinal morphology)” value (Balb/cJ mice; i.p. before bright light, OCT a week later) was “largely protected; also recorded: protective effect”. For the same molecule, the “effect on enzymatic activity of RPE65” value (RPE65) was “did not cause a measurable decline”.
